# Measurements reported in patent US6664214B1, “Uracil compounds and use thereof” (Sumitomo Chemical Company, Limited, priority 1999, dated 2003).
# Experiments:
# ivyleaf morningglory [1] = assay: Test Example 3: foliar treatment on upland field (Table 4); type: in vivo, Ipomoea hederacea; set-up: key: 0: little difference in the degree of germination or growth between the treated plants and the untreated plants at the time of examination; 10: the treated plants died completely or their germination or growth was completely inhibited; conditions: 125 g/ha active ingredient, examined 16 days after application, index 0-10
# Experimental: (§1) In the examples, the compounds are identified by the Compound Numbers as in Tables 1 to 3. […] A cylindrical plastic pot having a diameter of 10 cm and a depth of 10 cm was filled with soil and seeded with ivyleaf momingglory, velvetleaf and barnyardgrass. These test plants were grown in a greenhouse for 10 days. Then each of compounds listed below was formulated into an emulsifiable concentrate according to Formulation Example 2 and then diluted to the prescribed amount with water containing a spreading agent and the dilution was uniformly sprayed over the foliage of the test plants with sprayer at a rate of 1000 liters per hectare. After the application, the test plants were grown in the greenhouse for 16 days, and the herbicidal activity were determined.
# velvetleaf [2] = assay: as above; type: in vivo, Abutilon theophrasti; set-up: key: 0: little difference in the degree of germination or growth between the treated plants and the untreated plants at the time of examination; 10: the treated plants died completely or their germination or growth was completely inhibited; conditions: 125 g/ha active ingredient, examined 16 days after application, index 0-10
# Experimental: as §1
# barnyardgrass [3] = assay: as above; type: in vivo, Echinochloa crus-galli; set-up: key: 0: little difference in the degree of germination or growth between the treated plants and the untreated plants at the time of examination; 10: the treated plants died completely or their germination or growth was completely inhibited; conditions: 125 g/ha active ingredient, examined 16 days after application, index 0-10
# Experimental: as §1
# ivyleaf morningglory [4] = assay: Test Example 4: soil surface treatment on upland field (Table 5); type: in vivo, Ipomoea hederacea; set-up: key: 0: little difference in the degree of germination or growth between the treated plants and the untreated plants at the time of examination; 10: the treated plants died completely or their germination or growth was completely inhibited; conditions: 500 g/ha active ingredient, examined 12 days after application, index 0-10
# Excerpt: (§2) In the examples, the compounds are identified by the Compound Numbers as in Tables 1 to 3. […] A cylindrical plastic pot having a diameter of 10 cm and a depth of 10 cm was filled with soil and seeded ivyleaf morningglory, velvetleaf and barnyardgrass. Then each of compounds listed below was formulated into an emulsifiable concentrate according to Formulation Example 2 and then diluted to the prescribed amount with water and dilution was uniformly sprayed over the surface of the soil with sprayer at the rate of 1000 liters per hectare. After the application, the test plants were grown in a greenhouse for 12 days, and the herbicidal activity was examined.
# velvetleaf [5] = assay: as above; type: in vivo, Abutilon theophrasti; set-up: key: 0: little difference in the degree of germination or growth between the treated plants and the untreated plants at the time of examination; 10: the treated plants died completely or their germination or growth was completely inhibited; conditions: 500 g/ha active ingredient, examined 12 days after application, index 0-10
# Excerpt: as §2
# barnyardgrass [6] = assay: as above; type: in vivo, Echinochloa crus-galli; set-up: key: 0: little difference in the degree of germination or growth between the treated plants and the untreated plants at the time of examination; 10: the treated plants died completely or their germination or growth was completely inhibited; conditions: 500 g/ha active ingredient, examined 12 days after application, index 0-10
# Excerpt: as §2
# large crabgrass = assay: Test Example 5: foliar treatment on upland field (Table 6); type: in vivo, Digitaria sanguinalis; set-up: key: 0: little difference in the degree of germination or growth between the treated plants and the untreated plants at the time of examination; 10: the treated plants died completely or their germination or growth was completely inhibited; conditions: 125 g/ha, 19 days after application, index 0 to 10
# Experimental: In the examples, the compounds are identified by the Compound Numbers as in Tables 1 to 3. […] A pot for plug seedlings seeded with large crabgrass. The test plant was grown in a greenhouse for 14 days, then transplanted into a plastic pot having an area of 17×12 cm^2 and a depth of 7 cm, and further the test plants were grown in the greenhouse for 8 days. Then each of compounds listed below was formulated into an emulsifiable concentrate according to Formulation Example 2 and then diluted to the prescribed amount with water containing a spreading agent and the dilution was uniformly sprayed over the foliage of the test plants with sprayer at a rate of 1000 liters per hectare. After the application, the test plants were grown in the greenhouse for 19 days, and the herbicidal activity were determined.
# ivyleaf morningglory [7] = assay: Test Example 1: foliar treatment on upland field; type: in vivo, Ipomoea hederacea; conditions: 125 g/ha, 8 days after application
# Experimental: (§3) In the examples, the compounds are identified by the Compound Numbers as in Tables 1 to 3.
# (§4) A cylindrical plastic pot having a diameter of 10 cm and a depth of 10 cm was filled with soil and seeded with ivyleaf momingglory, velvetleaf and bamyardgrass. These test plants were grown in a greenhouse for 9 days. Then each of compounds 1-1, 2-1, 2-2, 3-1 and 3-101 was formulated into an emulsifiable concentrate according to Formulation Example 2 and then diluted to the prescribed amount with water containing a spreading agent and the dilution was uniformly sprayed over the foliage of the test plants with sprayer at a rate of 1000 liters per hectare. After the application, the test plants were grown in the greenhouse for 8 days, and the herbicidal activity were determined.
# velvetleaf [8] = assay: Test Example 1: foliar treatment on upland field; type: in vivo, Abutilon theophrasti; conditions: 125 g/ha, 8 days after application
# Experimental: as §3, §4
# barnyardgrass [9] = assay: Test Example 1: foliar treatment on upland field; type: in vivo, Echinochloa crus-galli; conditions: 125 g/ha, 8 days after application
# Experimental: as §3, §4
# velvetleaf [10] = assay: Test Example 2: soil surface treatment on upland field; type: in vivo, Abutilon theophrasti; conditions: 500 g/ha, 12 days after application
# Excerpt: as §2, with “seeded with velvetleaf.” for “seeded ivyleaf morningglory, velvetleaf and barnyardgrass.”, “compounds 1-1, 2-1, 2-2, 3-1 and 3-101” for “compounds listed below”, “at a” for “at the”
SMILES,Herbicidal effect Ivyleaf morningglory (ivyleaf morningglory [1]),Herbicidal effect Velvetleaf (velvetleaf [2]),Herbicidal effect Barnyardgrass (barnyardgrass [3]),Herbicidal effect Ivyleaf morningglory (ivyleaf morningglory [4]),Herbicidal effect Velvetleaf (velvetleaf [5]),Herbicidal effect Barnyardgrass (barnyardgrass [6]),Herbicidal effect Large crabgrass (large crabgrass),growth of ivyleaf morningglory (ivyleaf morningglory [7]),growth of velvetleaf (velvetleaf [8]),growth of barnyardgrass (barnyardgrass [9]),germination of velvetleaf (velvetleaf [10])
"COC(=O)C(C)Oc1ccc(COc2cc(-n3c(=O)cc(C(F)(F)F)n(C)c3=O)c(F)cc2Cl)cc1OC (centres unmarked) [Compound 1-61, Methyl 2-[4-({2-chloro-4-fluoro-5-[3-methyl-2,6-dioxo-4-(trifluoromethyl)-1,2,3,6-tetrahydropyrimidine-1-yl]phenoxy}methyl)-2-methoxyphenoxy]propionate]",10,10,10,10,10,10,10,,,,
"COC(=O)C(C)Oc1cc(COc2cc(-n3c(=O)cc(C(F)(F)F)n(C)c3=O)c(F)cc2Cl)ccc1OC (centres unmarked) [Compound 2-61, Methyl 2-[5-({2-chloro-4-fluoro-5-[3-methyl-2,6-dioxo-4-(trifluoromethyl)-1,2,3,6-tetrahydropyrimidine-1-yl]phenoxy}methyl)-2-methoxyphenoxy]propionate]",10,10,10,10,10,10,10,,,,
"CCOC(=O)C(C)Oc1ccc(COc2cc(-n3c(=O)cc(C(F)(F)F)n(C)c3=O)c(F)cc2Cl)cc1 (centres unmarked) [Compound 1-2, Ethyl 2-[4-({2-chloro-4-fluoro-5-[3-methyl-2,6-dioxo-4-(trifluoromethyl)-1,2,3,6-tetrahydropyrimidine-1-yl]phenoxy}methyl)phenoxy]propionate]",10,10,10,10,10,10,10,,,,
"COC(=O)C(C)Oc1ccccc1COc1cc(-n2c(=O)cc(C(F)(F)F)n(C)c2=O)c(F)cc1Cl (centres unmarked) [Compound 3-1, methyl 2-[2-({2-chloro-4-fluoro-5-[3-methyl-2,6-dioxo-4-(trifluoromethyl)-1,2,3,6-tetrahydropyrimidine-1-yl]phenoxy}methyl)phenoxy]propionate]",,,,,,,,completely controlled,completely controlled,completely controlled,completely controlled
"COC(=O)C(C)Oc1cc(COc2cc(-n3c(=O)cc(C(F)(F)F)n(C)c3=O)c(F)cc2Cl)ccc1Cl (centres unmarked) [Compound 2-41, Methyl 2-[2-chloro-5-({2-chloro-4-fluoro-5-[3-methyl-2,6-dioxo-4-(trifluoromethyl)-1,2,3,6-tetrahydropyrimidine-1-yl]phenoxy}methyl)phenoxy]propionate]",10,10,10,10,10,10,10,,,,
"COC(=O)C(C)Oc1ccc(C(C#N)Oc2cc(-n3c(=O)cc(C(F)(F)F)n(C)c3=O)c(F)cc2Cl)cc1 (centres unmarked) [Compound 1-226, Methyl 2-{4-[{2-chloro-4-fluoro-5-[3-methyl-2,6-dioxo-4-(trifluoromethyl)-1,2,3,6-tetrahydropyrimidine-1-yl]phenoxy}(cyano)methyl]phenoxy}propionate]",10,10,10,10,10,9,10,,,,
"CCc1ccc(COc2cc(-n3c(=O)cc(C(F)(F)F)n(C)c3=O)c(F)cc2Cl)c(OC(C)C(=O)OC)c1 (centres unmarked) [Compound 3-101, Methyl 2-[2-({2-chloro-4-fluoro-5-[3-methyl-2,6-dioxo-4-(trifluoromethyl)-1,2,3,6-tetrahydropyrimidine-1-yl]phenoxy}methyl)-5-ethylphenoxy]propionate]",,,,,,,,completely controlled,completely controlled,completely controlled,completely controlled
"CCOC(=O)C(C)Oc1cccc(COc2cc(-n3c(=O)cc(C(F)(F)F)n(C)c3=O)c(F)cc2Cl)c1 (centres unmarked) [Compound 2-2, Ethyl 2-[3-({2-chloro-4-fluoro-5-[3-methyl-2,6-dioxo-4-(trifluoromethyl)-1,2,3,6-tetrahydropyrimidine-1-yl]phenoxy}methyl)phenoxy]propionate]",10,10,10,10,10,10,10,completely controlled,completely controlled,completely controlled,completely controlled
"COC(=O)C(C)Oc1c(OC)cc(COc2cc(-n3c(=O)cc(C(F)(F)F)n(C)c3=O)c(F)cc2Cl)cc1OC (centres unmarked) [Compound 1-238, Methyl 2-[4-({2-chloro-4-fluoro-5-[3-methyl-2,6-dioxo-4-(trifluoromethyl)-1,2,3,6-tetrahydropyrimidine-1-yl]phenoxy}methyl)-2,6-dimethoxyphenoxy]propionate]",10,10,9,10,10,8,10,,,,
"COC(=O)C(C)Oc1ccc(Cl)c(COc2cc(-n3c(=O)cc(C(F)(F)F)n(C)c3=O)c(F)cc2Cl)c1 (centres unmarked) [Compound 2-187, Methyl 2-[4-chloro-3-({2-chloro-4-fluoro-5-[3-methyl −2,6-dioxo-4-(trifluoromethyl)-1,2,3,6-tetrahydropyrimidine-1-yl]phenoxy}methyl)phenoxy]propionate]",10,10,10,10,10,9,10,,,,
